Experimental data reported in patent EP0327365B1, “Improvements in or relating to modified haptens useful as imaging and therapeutic agents” (HYBRITECH INCORPORATED, priority 1988, dated 1989).

Legend:
[1] = Aqueous solubility (observation during synthesis); type: physicochemical; conditions: metal-free chelating agent, in words
T-380 tumors = assay: Hapten biodistribution, premix protocol with bifunctional antibody ECH037.2; type: in vivo, nude mice; design: TOTAL RECOV: unit not given here; conditions: for % DOSE PER GRAM, KIDNEY / % DOSE PER GRAM, LIVER / % DOSE PER GRAM, TUMOR / FECES / TOTAL RECOV / URINE / % DOSE PER GRAM, BLOOD / TUMOR/BLOOD: premix with 20 µg ECH037.2; for % DOSE PER GRAM, BLOOD: 111In-labeled hapten i.v.; for TUMOR/BLOOD: ratio; for Percent Injected Dose in Feces: premix protocol (Table VI)

Compound: CCCCCCCCNC(=S)Nc1ccc(CC(CN(CC(=O)O)CC(=O)O)N(CC(=O)O)CC(=O)O)cc1 (stereo not shown) [OTUBE]
- aqueous solubility [1]: Low aqueous solubility
- % DOSE PER GRAM, KIDNEY (T-380 tumors; 24 hours): 0.5 % DOSE PER GRAM
- % DOSE PER GRAM, LIVER (T-380 tumors; 24 hours): 0.8 % DOSE PER GRAM
- % DOSE PER GRAM, TUMOR (T-380 tumors; 24 hours): 1.1 % DOSE PER GRAM
- FECES (T-380 tumors; 24 hours): 56.5% of total injected dose
- TOTAL RECOV (T-380 tumors; 24 hours): 68.9
- URINE (T-380 tumors; 24 hours): 8.9% of total injected dose
- % DOSE PER GRAM, BLOOD (T-380 tumors; 24 hours): 1.1 % DOSE PER GRAM
- TUMOR/BLOOD (T-380 tumors; 24 hours): 1.00
- amount of hapten in the tumor (T-380 tumors; 24 hrs., premix protocol): 1.1 percent injected dose/gram
- Percent Injected Dose in Feces (T-380 tumors; 24 hrs.): 56.5 Percent Injected Dose
- % DOSE PER GRAM, KIDNEY (T-380 tumors; 48 hours): 0.2 % DOSE PER GRAM
- % DOSE PER GRAM, LIVER (T-380 tumors; 48 hours): 0.6 % DOSE PER GRAM
- % DOSE PER GRAM, TUMOR (T-380 tumors; 48 hours): 0.7 % DOSE PER GRAM
- FECES (T-380 tumors; 48 hours): 68.4% of total injected dose
- TOTAL RECOV (T-380 tumors; 48 hours): 81.4
- URINE (T-380 tumors; 48 hours): 10.9% of total injected dose
- % DOSE PER GRAM, BLOOD (T-380 tumors; 48 hours): 0.5 % DOSE PER GRAM
- TUMOR/BLOOD (T-380 tumors; 48 hours): 1.40
- injected material excreted in the feces (T-380 tumors; 48 hrs. post injection, premix protocol): 68.4% of the injected material
- amount of hapten in the tumor (T-380 tumors; 48 hrs., premix protocol): 0.7 percent injected dose/gram
- Percent Injected Dose in Feces (T-380 tumors; 48 hrs.): 68.4 Percent Injected Dose
